# Read-outs that look alike come from different tables or passages of the source.
# Columns and labels:
# thymic cells = assay: Thymic cell proliferation (3H-thymidine) from treated infected mice; format: in vivo
# Method: Mice thymuses were collected aseptically, homogenized, suspended in RPMI-1640 medium and filtered through two layers of sterile gauze. Cell suspensions were washed twice in RPMI-1640 with 2 mM L-glutamine and […] gentamycin, then counted using a Goriaev hemocytometer.
# (§1) Spleen cells and thymic cells were isolated as described above. In vitro, thymic cells were diluted to 10^7/ml in RPMI-1640 with 2 mM L-glutamine, 80 ìg/ml gentamycin and 4% heat-inactivated fetal calf serum (Sigma, St. Louis, Mo.). Spleen cells were diluted to 3×10^6/ml in RPMI-1640 with 2 mM L-glutamine, 80 ìg/ml gentamycin and 20% inactivated fetal calf serum. 0.5 ìg/ml Concanavalin A (Con A, Sigma, St. Louis, Mo.) was used to stimulate thymic cell proliferation. For spleen cell proliferation, 0.5 ìg/ml Con A, 10 ìg/ml lipopolysaccharide (Sigma, St. Louis, Mo.), and 50 ìg/ml tuberculin purified protein derivative (PPD) were utilized. The assay was carried out in 96-well plates and cell cultures were incubated for 72 hours, or 96 hours if tuberculin was used, at 37° C. in humidified 5% CO2, then pulsed with 5 ìl Ci/ml ^3H-thymidine overnight (approximately 16 h) and harvested on filters using a semi-automated harvester (Titertek™, Flow Laboratories, Norway). Filters were dried and proliferation calculated by ^3H-thymidine incorporation by counting samples in a liquid scintillation counter (LKB 1217 Racketa, Wallace, Sweden). Data was expressed in impulses per minute.
# spleen cells = assay: Spleen cell proliferation (Con A, LPS, tuberculin) from treated infected mice; format: in vivo
# Method: Spleens from mice were harvested aseptically, homogenized in RPMI-1640 medium (Biolot, Russia) and filtered through two layers of sterile gauze. Erythrocytes were lysed in 0.83% percent ammonium chloride solution after centrifugation of the homogenate. Spleen cells were washed twice with RPMI-1640 with 2 mM L-glutamine and […] gentamycin (Sigma, St. Louis, Mo.), then counted using a Goriaev hemocytometer.
# as §1
# M. bovis 8 = format: in vivo, mice
# tuberculosis = assay: SCV-07 therapy of a patient with infiltrative tuberculosis (Example 1); format: in vivo, human; settings: after SCV-07 0.1 mg daily for 5 days
# Method: A patient, was admitted to the hospital with infiltrative tuberculosis with destruction and dissemination in the upper lobe of the left lung. […] Lymphopenia (18%) and increased ESR (25 mm/h) were present in the blood count. […] Aggressive traditional antituberculosis therapy was carried out including isoniazid at 600 mg/day intravenously, pyrazinamid at 1500 mg/day per os, rifampicin at 450 mg/day per os.
# The traditional therapy was unsuccessful, and SCV-07 treatment was undertaken. Following a course of SCV-07 therapy at 0.1 mg daily for 5 days, bacterial intoxication resolved, destructive cavities closed and the sputum culture test was negative. CD3+ lymphocytes increased and tolerance to other drugs improved.
# IL-4 and IFN-γ = assay: INF-γ and IL-4 concentrations in blood serum; format: in vivo, mice
# peritoneal macrophages = assay: Phagocytosis and killing of Saccharomyces cerevisiae by peritoneal macrophages of treated infected mice; format: in vivo
# Method: In order to study phagocytosis, peritoneal macrophages were plated at a concentration of 10^6 cells per Petri dish and media including 10^7 Saccharomyces cerevisiae cells, opsonized by mice serum was added. Results were evaluated using the Mann-Whitney test. Phagocytic activity was calculated after determination of percentage of macrophages involved in phagocytes. The phagocytic index was determined by calculating the average number of yeast phagocytosed per one cell. Killing activity was resolved by the number of yeast digested by macrophages after 1.5 h of incubation. Finally, the killing index was determined as follows: [formula]
# [1] = 24 days after end of therapy, Group 7 (0.1 ìg/kg ip) versus Group 3 (isoniazid control)
# [2] = after 10 days, Groups 4, 5, 6 and 7
compound,measurement,setting,value
"N[C@H](CCC(=O)N[C@@H](Cc1c[nH]c2ccccc12)C(=O)O)C(=O)O [SCV-07, γ-D-glutamyl-L-tryptophan]",basal thymic cell proliferation,thymic cells; SCV-07 treated (Groups 4 to 9) versus control (Groups 1 to 3),No significant differences
same,Con A stimulated thymic cell proliferation,"thymic cells; after 4 days, Group 7 (0.1 ìg/kg ip) in comparison to Group 3 (isoniazid control)",significantly higher
same,Con A stimulated thymic cell proliferation response,"thymic cells; day 17, Groups 7 and 8 (0.1 and 0.01 ìg/kg ip)",essentially the same response as uninfected mice
same,Con A stimulated thymic cell proliferation,"thymic cells; day 24, Groups 6, 7 and 8 (1 ìg/kg 10 injections ip, 0.1 and 0.01 ìg/kg ip)",higher numbers than the isoniazid control
same,spleen cell proliferative response with LPS,"spleen cells; after 24 days, Group 6 (1 ìg/kg, 10 injections ip)",did not differ from uninfected mice
same,spleen cell proliferative response with Con A,"spleen cells; after 24 days, Groups 6 and 7 (1 ìg/kg, 10 injections ip and 0.1 ìg/kg ip)",did not differ from uninfected mice
same,spleen cell proliferative response to tuberculin,"spleen cells; later than 4 days of therapy, Group 6 (1 ìg/kg ip, 10 injections)",significantly higher than the control
same,M. bovis growth in spleen culture,M. bovis 8; 5 daily injections of 0.01 ìg/kg,decreases
same,differences between the control and experimental groups,"M. bovis 8; 10 days and 17 days after termination of treatment, groups other than Group 7",lacked significance
same,growth of M bovis cultured from spleens,M. bovis 8; [1],200±0 CFU
same,lung weight index,M. bovis 8; [1],1.38±0.06
same,spleen weight index,M. bovis 8; [1],1.59±0.25
same,increase in body weight,"M. bovis 8; 24 days after end of therapy, Group 7 (SCV-07 0.1 ìg/kg ip, 5 injections, with isoniazid) versus Group 3 (isoniazid control)",30.8%
same,"M. bovis growth in spleen cultures, significant decrease","M. bovis 8; Group 5 (1 ìg/kg ip, 5 injections), 24 days after treatment",this trend did not occur
same,M. bovis growth in spleen cultures,"M. bovis 8; Group 6 (1 ìg/kg ip, 10 injections), 24 days after treatment, 275±14.1 CFU in the control",190±21.5 CFU
same,"lung damage index, difference to isoniazid control (Group 3)","M. bovis 8; Group 7 (0.1 ìg/kg ip), 4 days after therapy",Significant differences
same,lung damage index,"M. bovis 8; Group 7 (0.1 ìg/kg ip), 10 days and 17 days after termination of treatment",considerably differed from the control
same,"lung damage index, difference to untreated controls (Group 2)","M. bovis 8; Groups 5, 7, 8 and 9 (1, 0.1, 0.01 ìg/kg ip and 1 ìg/kg po), 4 days after therapy",significant differences
same,lung damage index,"M. bovis 8; all doses, 4 days after the end of 5 days of therapy (Day 28 of infection)",decreased
same,CD3+ lymphocytes,tuberculosis,increased
same,bacterial intoxication,tuberculosis,resolved
same,destructive cavities,tuberculosis,closed
same,Immune complexes in circulation,"tuberculosis; from 84 U, normal level 22-66 U",69 U
same,sputum culture test,tuberculosis; traditional therapy was unsuccessful,negative
same,IFN-γ levels in blood serum,IL-4 and IFN-γ; [2],increased
same,IL-4 levels in blood serum,IL-4 and IFN-γ; [2],decreased
same,concentration of IFN-γ in blood serum,"IL-4 and IFN-γ; after 17 days, Groups 4, 5, 6, 7 and 8 (significantly in group 7 and 8)",increased
same,IL-4 in blood serum,"IL-4 and IFN-γ; after 17 days, Groups 5, 6 and 7",significantly decreased
same,macrophage killing,"peritoneal macrophages; 24 days after treatment, Groups 6 and 7 (1.0 ìg/kg, 10 injections and 0.1 ìg/kg ip)",significantly improved
same,phagocytic activity,"peritoneal macrophages; after 4 days, Group 7 (SCV-07 0.1 ìg/kg ip) compared to Group 3 (isoniazid control), p≦0.05, 64.2% in uninfected mice",38.8%
same,phagocytic index,"peritoneal macrophages; after 4 days, SCV-07 treatment",normalized
same,killing,"peritoneal macrophages; after 4 days, SCV-07 versus control, p≦0.05",244.4
same,killing and the killing index,"peritoneal macrophages; after 17 days, Group 6 (1.0 ìg/kg ip, 10 injections)",significantly increased
same,phagocytic activity,"peritoneal macrophages; after 17 days, Group 6 (1.0 ìg/kg ip, 10 injections) versus Group 3 (isoniazid control)",60.4%
same,phagocytic index,"peritoneal macrophages; after 17 days, Group 6 (1.0 ìg/kg ip, 10 injections) versus Group 3, p=0.05",6.88 U
same,killing,"peritoneal macrophages; ten days after therapy, Group 5 (1 ìg/kg, ip) compared to the control",significantly increased
same,ingestion and killing,"peritoneal macrophages; ten days after therapy, Groups 8 and 9 (0.01 ìg/kg ip and 1 ìg/kg po)",tendency toward decreased

# — patent publication US20040259806A1 (priority 2001, published 2004)
